Tests used:
[1] = test system: subcutaneous CT26.WT carcinoma xenografts; assay: Anti-cancer activity against subcutaneous CT26.WT carcinoma in Balb/c mice (tumor growth delay, response status); type: in vivo; set-up: key to Tumor Growth Delay, statistical comparison vs G1 (Vehicle (Saline)) / Tumor Growth Delay, statistical comparison vs G2 (GMI-1359) / Tumor Growth Delay, statistical comparison vs G3 (anti KLH; Rat IgG2b, LTF-2) / Tumor Growth Delay, statistical comparison vs G4 (anti-mPD-L1) / Tumor Growth Delay, statistical comparison vs G5 (GMI-1359 + anti KLH; Rat IgG2b, LTF-2) / Tumor Growth Delay, statistical comparison vs G6 (GMI-1359 + anti-mPD-L1) / Tumor Growth Delay, statistical comparison vs G7 (Vehicle (Saline)): + = P < 0.05; NS = Nonsignificant
Description: The anti-cancer activity of an anti-mPD-L1 antibody (10F.9G2) and GMI-1359 was compared to a rat isotype control antibody against indeterminate subcutaneous CT26.WT carcinoma xenografts in female Balb/c mice. An immune profile of each mouse was determined by sampling tumors and spleens, staining for several markers of an active immune response, and detecting the levels of these markers via flow cytometry. Flow cytometry markers included: T-Cells (CD4^+ and CD8^+), Regulatory T-Cells (Tregs). (CD4^+/CD25^+/FoxP3^+), MDSCs (CD11b^+/Gr1^+) and co-expression of CCR7^+ and CD62^+ added to the existing CD4/CD8 panel.
CT26.WT cells were grown in RPMI 1640 medium which was modified with 1 mM Na pyruvate, 10 mM HEPES, 2.5 g/L glucose and supplemented with 10% nonheat-inactivated Fetal Bovine Serum (FBS) and 1% 100X Penicillin/Streptomycin/L-Glutamine (PSG). The growth environment was maintained in an incubator with a 5% CO2 atmosphere at 37° C.
When expansion was complete, the cells were trypsinized using 0.25% trypsin-EDTA solution. Following cell detachment, the trypsin was inactivated by dilution with complete growth medium and any clumps of cells were separated by pipetting. The cells were centrifuged at 200 rcf for 8 minutes at 4° C., the supernatant was aspirated, and the pellet was re-suspended in cold Dulbecco's Phosphate Buffered Saline (DPBS) by pipetting. An aliquot of the homogeneous cell suspension was diluted in a trypan blue solution and counted using a Luna automated cell counter. The preimplantation cell viability was 92%. The cell suspension was centrifuged at 200 rcf for 8 minutes at 4° C. The supernatant was aspirated and the cell pellet was re-suspended in cold serum-free medium to generate a final concentration of 2.50E+06 trypan-excluding cells/mi. The cell suspension was maintained on wet ice during implantation. Following implantation, an aliquot of the remaining cells was diluted with a trypan blue solution and counted to determine the post-implantation cell viability (91%).
Test animals were implanted subcutaneously, high in the axilla (just under the fore limb) on Day 0 with 5.00E+05 cells in 0.2 ml of serum-free medium using a 27-gauge needle and syringe.
All mice were sorted into study groups based on body weights such that the mean body weights in each group was within 10% of the overall mean. Treatment began on Day 3.
GMI-1359 was dosed intraperitoneally at 40 mg/kg, every day for 20 days (Days 3-22) and every day for 12 days (Days 3-14) for Groups 2 and 8, respectively.
Anti-KLH; Rat IgG2b, LTF-2 was dosed intraperitoneally at 10 mg/kg, every 3 days for 2 treatments, with 3 days off for 2.5 weeks (Days 3, 6, 10, 13 and 17) for Group 3. Group 9 was dosed intraperitoneally at 10 mg/kg, every 3 days for 2 treatments, with 3 days off for 2 weeks (Days 3, 6, 10 and 13).
Groups 4 and 10: Anti-mPD-L1, 10F.9G2 was dosed intraperitoneally at 10 mg/kg, every 3 days for 2 treatments, with 3 days off for 2.5 weeks (Days 3, 6, 10, 13 and 17) for Group 4.
Group 10 was dosed intraperitoneally at 10 mg/kg, every 3 days for 2 treatments, with 3 days off for 2 weeks (Days 3, 6, 10 and 13).
GMI-1359 was dosed in combination with anti-KLH; Rat IgG2b, LTF intraperitoneally at 40 mg/kg and 10 mg/kg, respectively. In Group 5, GMI-1359 was dosed once a day for 20 days (Days 3-22) and anti-KLH; Rat IgG2b was given every 3 days for 2 treatments, with 3 days off for 2.5 weeks (Days 3, 6, 10, 13 and 17). In Group 11, GMI-1359 was dosed once a day for 12 days (Days 3-14) and anti-KLH; Rat IgG2b was dosed every 3 days for 2 treatments, with 3 days off for 2 weeks and (Days 3, 6, 10 and 13). On days when both compounds were dosed, GMI-1359 was given first and then anti-KLH; Rat IgG2b, LTF was given within minutes thereafter.
Groups 6 and 12: GMI-1359 and anti-mPD-L1, 10F.9G2 were dosed in a combination regimen intraperitoneally at 40 mg/kg and 10 mg/kg, respectively. […]

[2] = Assessment of side effects in CT26.WT tumor-bearing mice (body weight, mortality, necropsy); type: in vivo
Description: Animals were weighed on each day of treatment. Individual body weights were recorded 3 times weekly. Treatment-related weight loss in excess of 20% was considered unacceptably toxic. In this report, a dosage level is described as tolerated if treatment-related weight loss (during and two weeks after treatment) is <20% and mortality during this period in the absence of potentially lethal tumor burdens is ≤10%. FIG. 6 provides a graph of the percent mean body weight change for the 12 experimental groups.
Upon death or euthanasia, all animals were necropsied to provide a general assessment of potential cause of death and perhaps target organs for toxicity. The presence or absence of metastases was also noted. Remarkable observations of clinical signs and necropsy findings were tabulated as well as individual and group toxicity findings.
This is an individual toxicity parameter.

[3] = Groups 2-6: GMI-1359 40 mg/kg IP QDx20, antibody 10 mg/kg IP Days 3,6,10,13,17
[4] = listed as groups G8-G12 (sampling groups)
[5] = printed directly after the Group 8 / Group 12 values, group not named

## CCC1CC(C(=O)NCCNCc2ccc(CN3CCCNCCNCCCNCC3)c(Br)c2)CC(OC2OC(CO)C(O)C(O[C@@H](CC3CCCCC3)C(=O)O)C2NC(C)=O)C1OC1OC(C)C(O)C(O)C1O (stereo partly shown) [GMI-1359]
[1]; Group 2, single agent
  disease status of the group: all animals were identified with progressive disease
[1]; Groups 2, 4, 6
  statistical significance of anti-tumor effect: did not produce a statistically significant (p>0.05) anti-tumor effect
[1]; Groups 2-6
  regressions or tumor free survivors: no regressions or tumor free survivors
[1]; Groups 2-6: GMI-1359 40 mg/kg IP QDx20 (Days 3-22), antibody 10 mg/kg IP Days 3,6,10,13,17
  median time to evaluation size (750 mm^3) from the start of dosing: 18.4 days
[1]; [3]
  median post Day 9 tumor volume doubling time: 3.3 days
[1]; Groups 2-6, tumor burden >=2 fold that on Day 9
  incidence of progressive disease: 100%
[1]; Groups 2-6 vs Group 1 saline, evaluation size 750 mm^3, GMI-1359 40 mg/kg IP QDx20, antibody 10 mg/kg IP Days 3,6,10,13,17
  tumor growth delay (T-C): 2.5 days
[1]; Groups 8-12 (sampling groups)
  regressions or tumor free survivors: no regressions or tumor free survivors
[1]; Groups 8-12 (sampling groups, euthanized Day 15)
  incidence of progressive disease: 100%
[1]; Groups 8-12: GMI-1359 40 mg/kg IP QDx12 (Days 3-14), antibody 10 mg/kg IP Days 3,6,10,13, euthanized Day 15
  median time to evaluation size: 14.3 days
[1]; Groups 8-12: GMI-1359 40 mg/kg IP QDx12, antibody 10 mg/kg IP Days 3,6,10,13, euthanized Day 15
  median post Day 9 tumor volume doubling time: 1.8 days
[1]; listed as groups G2-G6, time to evaluation size 750 mm^3
  Tumor Growth Delay, statistical comparison vs G1 (Vehicle (Saline)): NS
[1]; [4]
  Tumor Growth Delay, statistical comparison vs G1 (Vehicle (Saline)): NS
  Tumor Growth Delay, statistical comparison vs G2 (GMI-1359): NS
  Tumor Growth Delay, statistical comparison vs G3 (anti KLH; Rat IgG2b, LTF-2): NS
  Tumor Growth Delay, statistical comparison vs G4 (anti-mPD-L1): NS
  Tumor Growth Delay, statistical comparison vs G5 (GMI-1359 + anti KLH; Rat IgG2b, LTF-2): NS
  Tumor Growth Delay, statistical comparison vs G6 (GMI-1359 + anti-mPD-L1): NS
  Tumor Growth Delay, statistical comparison vs G7 (Vehicle (Saline)): NS
[1]; [5]
  median time to progression: 14.5 days
  progression free survival period: 5.5 days
[2]; Groups 2-6
  mean weight gain during the treatment regimen: 16.8%
  treatment-related mortality: no treatment-related mortality
  weight loss associated with treatment: No weight loss
[2]; [3]
  tolerance of treatment: well tolerated
[2]; Groups 8-12
  mean weight gain during the treatment regimen: 7.0%
  treatment-related mortality: no treatment-related mortality
  weight loss associated with treatment: No weight loss
[2]; Groups 8-12, Day 15
  necropsy findings: unremarkable
[2]; Groups 8-12: GMI-1359 40 mg/kg IP QDx12, antibody 10 mg/kg IP Days 3,6,10,13
  tolerance of treatment: well tolerated
[2]; summary over both regimens / all groups
  tolerance of treatment, summary: well tolerated
